Experimental data from ChEMBL document CHEMBL4507281, “Data for DCP probe BI-4394” (2021).

How the values were obtained:
[1] = biological target: Phosphatidylinositol 5-phosphate 4-kinase type-2 gamma (Homo sapiens) (UniProt Q8TBX8); details: Compound concentration 100.0 nM
[2] = biological target: Proto-oncogene tyrosine-protein kinase Src (Homo sapiens) (UniProt P12931); details: Compound concentration 100.0 nM
[3] = biological target: Ephrin type-A receptor 7 (Homo sapiens) (UniProt Q15375); details: Compound concentration 100.0 nM
[4] = biological target: Myosin light chain kinase, smooth muscle (Homo sapiens) (UniProt Q15746); details: Compound concentration 100.0 nM
Sequence of Myosin light chain kinase, smooth muscle (Homo sapiens) (Q15746 whole entry): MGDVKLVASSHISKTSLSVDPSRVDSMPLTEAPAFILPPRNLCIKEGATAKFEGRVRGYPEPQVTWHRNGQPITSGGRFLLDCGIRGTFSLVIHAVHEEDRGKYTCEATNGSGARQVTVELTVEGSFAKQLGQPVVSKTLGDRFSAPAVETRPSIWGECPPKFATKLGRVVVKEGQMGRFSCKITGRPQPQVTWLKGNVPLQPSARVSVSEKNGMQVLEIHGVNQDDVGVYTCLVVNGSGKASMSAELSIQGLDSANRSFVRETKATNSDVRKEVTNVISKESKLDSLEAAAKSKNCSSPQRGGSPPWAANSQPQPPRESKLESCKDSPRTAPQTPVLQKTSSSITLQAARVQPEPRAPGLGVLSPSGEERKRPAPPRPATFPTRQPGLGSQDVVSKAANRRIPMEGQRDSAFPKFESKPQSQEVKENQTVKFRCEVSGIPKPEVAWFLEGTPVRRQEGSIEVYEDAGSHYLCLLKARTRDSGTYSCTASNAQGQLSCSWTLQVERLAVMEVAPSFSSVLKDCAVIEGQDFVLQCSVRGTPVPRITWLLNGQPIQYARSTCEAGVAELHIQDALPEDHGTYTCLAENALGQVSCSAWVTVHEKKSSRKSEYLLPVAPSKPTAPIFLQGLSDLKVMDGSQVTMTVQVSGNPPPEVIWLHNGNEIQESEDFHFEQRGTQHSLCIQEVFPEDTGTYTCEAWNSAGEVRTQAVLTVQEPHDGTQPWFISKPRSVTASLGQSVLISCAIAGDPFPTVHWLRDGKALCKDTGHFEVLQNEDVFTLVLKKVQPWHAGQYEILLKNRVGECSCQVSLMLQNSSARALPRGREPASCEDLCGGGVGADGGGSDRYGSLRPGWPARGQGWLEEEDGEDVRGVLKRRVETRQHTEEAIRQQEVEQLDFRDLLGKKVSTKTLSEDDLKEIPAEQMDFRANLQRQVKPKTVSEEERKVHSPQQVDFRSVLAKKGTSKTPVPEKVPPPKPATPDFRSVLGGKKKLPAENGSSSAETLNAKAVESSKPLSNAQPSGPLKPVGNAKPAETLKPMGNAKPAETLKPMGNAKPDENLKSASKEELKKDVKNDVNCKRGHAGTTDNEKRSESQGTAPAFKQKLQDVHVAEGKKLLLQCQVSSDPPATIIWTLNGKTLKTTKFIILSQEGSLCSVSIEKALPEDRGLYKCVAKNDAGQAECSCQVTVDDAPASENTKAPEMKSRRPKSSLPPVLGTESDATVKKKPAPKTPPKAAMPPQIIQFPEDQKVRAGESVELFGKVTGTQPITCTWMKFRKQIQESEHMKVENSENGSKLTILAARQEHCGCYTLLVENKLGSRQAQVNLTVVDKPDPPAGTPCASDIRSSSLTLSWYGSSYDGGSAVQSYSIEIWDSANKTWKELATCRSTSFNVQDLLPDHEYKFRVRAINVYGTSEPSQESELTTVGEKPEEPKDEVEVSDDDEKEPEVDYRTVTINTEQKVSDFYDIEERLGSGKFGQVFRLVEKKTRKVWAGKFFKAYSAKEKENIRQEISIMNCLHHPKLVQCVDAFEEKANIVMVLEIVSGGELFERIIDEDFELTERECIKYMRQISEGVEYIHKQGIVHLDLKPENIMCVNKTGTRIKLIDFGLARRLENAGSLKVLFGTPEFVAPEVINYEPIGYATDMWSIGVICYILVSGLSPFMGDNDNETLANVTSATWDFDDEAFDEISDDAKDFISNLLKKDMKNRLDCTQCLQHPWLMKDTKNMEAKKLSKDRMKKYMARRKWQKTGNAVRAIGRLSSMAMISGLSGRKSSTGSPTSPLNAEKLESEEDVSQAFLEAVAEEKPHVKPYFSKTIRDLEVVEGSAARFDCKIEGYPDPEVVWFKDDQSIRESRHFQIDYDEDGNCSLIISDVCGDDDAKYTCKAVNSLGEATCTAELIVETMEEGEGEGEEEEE

[5] = biological target: 5-hydroxytryptamine receptor 7 (Homo sapiens) (UniProt P34969); details: Compound concentration 10.0 uM
[6] = biological target: BDNF/NT-3 growth factors receptor (Homo sapiens) (UniProt Q16620); details: Compound concentration 100.0 nM
Sequence of BDNF/NT-3 growth factors receptor (Homo sapiens) (Q16620 32-822 limits assumed): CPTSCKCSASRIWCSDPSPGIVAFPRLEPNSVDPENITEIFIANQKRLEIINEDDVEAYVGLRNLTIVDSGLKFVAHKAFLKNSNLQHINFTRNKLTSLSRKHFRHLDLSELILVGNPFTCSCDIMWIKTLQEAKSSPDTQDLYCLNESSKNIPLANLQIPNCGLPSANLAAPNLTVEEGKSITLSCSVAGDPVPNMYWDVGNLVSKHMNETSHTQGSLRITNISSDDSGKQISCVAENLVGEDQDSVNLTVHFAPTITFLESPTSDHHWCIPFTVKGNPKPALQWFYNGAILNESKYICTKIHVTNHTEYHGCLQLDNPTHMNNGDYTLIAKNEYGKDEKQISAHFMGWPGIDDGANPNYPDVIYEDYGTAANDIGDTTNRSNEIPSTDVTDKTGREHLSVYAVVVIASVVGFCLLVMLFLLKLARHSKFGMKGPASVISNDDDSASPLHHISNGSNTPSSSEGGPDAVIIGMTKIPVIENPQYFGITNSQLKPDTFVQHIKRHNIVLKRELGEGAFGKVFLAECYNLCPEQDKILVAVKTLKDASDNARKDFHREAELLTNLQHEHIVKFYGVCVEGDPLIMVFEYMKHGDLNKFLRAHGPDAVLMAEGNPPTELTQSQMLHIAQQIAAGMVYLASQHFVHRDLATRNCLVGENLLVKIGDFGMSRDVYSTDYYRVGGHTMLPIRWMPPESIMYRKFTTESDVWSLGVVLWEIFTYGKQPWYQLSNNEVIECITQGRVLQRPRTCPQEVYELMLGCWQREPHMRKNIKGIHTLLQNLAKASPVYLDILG

[7] = tested on: ALK tyrosine kinase receptor (Homo sapiens), Q9UM73 [L1196M]; details: Compound concentration 100.0 nM
[8] = biological target: Serine/threonine-protein kinase tousled-like 2 (Homo sapiens) (UniProt Q86UE8); details: Compound concentration 100.0 nM
[9] = biological target: Mitogen-activated protein kinase 11 (Homo sapiens) (UniProt Q15759); details: Compound concentration 100.0 nM
Sequence of Mitogen-activated protein kinase 11 (Homo sapiens) (Q15759 whole entry): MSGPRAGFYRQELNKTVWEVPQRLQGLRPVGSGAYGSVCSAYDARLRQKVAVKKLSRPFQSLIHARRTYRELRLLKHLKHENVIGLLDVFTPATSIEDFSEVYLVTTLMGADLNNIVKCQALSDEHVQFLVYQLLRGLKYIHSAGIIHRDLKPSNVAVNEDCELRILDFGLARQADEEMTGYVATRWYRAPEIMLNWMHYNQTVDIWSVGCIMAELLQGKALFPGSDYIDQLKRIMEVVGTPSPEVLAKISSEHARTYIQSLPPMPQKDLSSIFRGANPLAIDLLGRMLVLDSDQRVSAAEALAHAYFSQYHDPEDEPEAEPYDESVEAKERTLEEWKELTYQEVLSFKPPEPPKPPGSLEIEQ

[10] = biological target: Misshapen-like kinase 1 (Homo sapiens) (UniProt Q8N4C8); details: Compound concentration 100.0 nM
[11] = biological target: Dual specificity tyrosine-phosphorylation-regulated kinase 2 (Homo sapiens) (UniProt Q92630); details: Compound concentration 100.0 nM
D(1B) dopamine receptor = D(1B) dopamine receptor (Homo sapiens, UniProt P21918); details: Compound concentration 10.0 uM
[12] = tested on: Receptor-type tyrosine-protein kinase FLT3 (Homo sapiens), P36888 [UNDEFINED MUTATION]; details: Compound concentration 100.0 nM
Sequence of Receptor-type tyrosine-protein kinase FLT3 (Homo sapiens), P36888 [UNDEFINED MUTATION] (P36888 whole entry, looked up, stated change not applied): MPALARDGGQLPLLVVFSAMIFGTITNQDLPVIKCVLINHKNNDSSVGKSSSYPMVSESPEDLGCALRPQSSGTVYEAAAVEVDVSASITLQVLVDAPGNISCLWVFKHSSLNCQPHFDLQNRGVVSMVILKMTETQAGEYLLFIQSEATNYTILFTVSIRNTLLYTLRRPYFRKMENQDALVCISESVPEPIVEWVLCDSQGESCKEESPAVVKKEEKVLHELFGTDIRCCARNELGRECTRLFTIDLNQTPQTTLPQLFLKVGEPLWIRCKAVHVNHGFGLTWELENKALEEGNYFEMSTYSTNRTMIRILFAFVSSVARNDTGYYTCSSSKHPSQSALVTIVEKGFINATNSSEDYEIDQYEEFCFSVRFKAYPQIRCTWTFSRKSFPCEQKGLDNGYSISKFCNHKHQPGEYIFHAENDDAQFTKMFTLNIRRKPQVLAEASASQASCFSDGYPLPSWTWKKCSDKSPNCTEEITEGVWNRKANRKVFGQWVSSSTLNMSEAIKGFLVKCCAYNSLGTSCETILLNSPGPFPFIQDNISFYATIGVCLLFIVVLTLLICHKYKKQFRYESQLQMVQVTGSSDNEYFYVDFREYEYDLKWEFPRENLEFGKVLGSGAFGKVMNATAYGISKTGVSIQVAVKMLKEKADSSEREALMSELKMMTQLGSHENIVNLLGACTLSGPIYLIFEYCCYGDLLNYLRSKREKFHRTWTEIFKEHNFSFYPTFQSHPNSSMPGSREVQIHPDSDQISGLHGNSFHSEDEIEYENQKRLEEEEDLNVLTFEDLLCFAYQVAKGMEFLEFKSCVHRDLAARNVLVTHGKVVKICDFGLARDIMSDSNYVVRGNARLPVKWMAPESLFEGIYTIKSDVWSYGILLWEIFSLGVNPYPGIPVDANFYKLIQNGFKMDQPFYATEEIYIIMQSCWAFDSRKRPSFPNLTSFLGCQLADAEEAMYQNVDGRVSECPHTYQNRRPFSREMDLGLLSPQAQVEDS

[13] = tested on: Mast/stem cell growth factor receptor Kit (Homo sapiens), P10721 [V559D,V654A]; details: Compound concentration 100.0 nM
[14] = biological target: Serine/threonine-protein kinase TBK1 (Homo sapiens) (UniProt Q9UHD2); details: Compound concentration 100.0 nM
Sequence of Serine/threonine-protein kinase TBK1 (Homo sapiens) (Q9UHD2 whole entry): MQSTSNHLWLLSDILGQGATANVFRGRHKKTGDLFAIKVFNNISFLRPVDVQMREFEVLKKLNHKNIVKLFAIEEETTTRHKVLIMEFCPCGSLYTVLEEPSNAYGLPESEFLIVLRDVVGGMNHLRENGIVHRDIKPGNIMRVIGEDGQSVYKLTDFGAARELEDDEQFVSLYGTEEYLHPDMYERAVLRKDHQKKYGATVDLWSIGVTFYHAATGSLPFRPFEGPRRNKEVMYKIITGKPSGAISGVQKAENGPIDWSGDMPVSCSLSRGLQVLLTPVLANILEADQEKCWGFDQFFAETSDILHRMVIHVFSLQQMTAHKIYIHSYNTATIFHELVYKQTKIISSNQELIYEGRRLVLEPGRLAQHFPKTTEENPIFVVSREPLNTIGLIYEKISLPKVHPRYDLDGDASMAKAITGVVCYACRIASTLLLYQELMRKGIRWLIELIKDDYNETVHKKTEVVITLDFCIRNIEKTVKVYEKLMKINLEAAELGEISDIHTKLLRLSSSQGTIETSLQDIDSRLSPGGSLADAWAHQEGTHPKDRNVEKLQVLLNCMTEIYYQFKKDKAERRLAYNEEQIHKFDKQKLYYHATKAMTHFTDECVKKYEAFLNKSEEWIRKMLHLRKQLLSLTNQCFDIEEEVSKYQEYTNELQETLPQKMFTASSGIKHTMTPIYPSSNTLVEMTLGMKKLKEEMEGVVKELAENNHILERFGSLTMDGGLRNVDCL

[15] = biological target: Mitogen-activated protein kinase kinase kinase 7 (Homo sapiens) (UniProt O43318); details: Compound concentration 100.0 nM
[16] = biological target: Phosphatidylinositol 4-phosphate 5-kinase type-1 alpha (Homo sapiens) (UniProt Q99755); details: Compound concentration 100.0 nM
[17] = biological target: Inhibitor of nuclear factor kappa-B kinase subunit epsilon (Homo sapiens) (UniProt Q14164); details: Compound concentration 100.0 nM
[18] = biological target: Serine/threonine-protein kinase 16 (Homo sapiens) (UniProt O75716); details: Compound concentration 100.0 nM
[19] = biological target: Beta-2 adrenergic receptor (Homo sapiens) (UniProt P07550); details: Compound concentration 10.0 uM
[20] = biological target: Mitogen-activated protein kinase 3 (Homo sapiens) (UniProt P27361); details: Compound concentration 100.0 nM
[21] = biological target: Receptor-interacting serine/threonine-protein kinase 4 (Homo sapiens) (UniProt P57078); details: Compound concentration 100.0 nM
[22] = biological target: Discoidin domain-containing receptor 2 (Homo sapiens) (UniProt Q16832); details: Compound concentration 100.0 nM
[23] = biological target: G protein-coupled receptor kinase 3 (Homo sapiens) (UniProt P35626); details: Compound concentration 100.0 nM
[24] = biological target: Mitogen-activated protein kinase kinase kinase kinase 5 (Homo sapiens) (UniProt Q9Y4K4); details: Compound concentration 100.0 nM
[25] = biological target: T1, Serine/threonine-protein kinase Nek1 (Homo sapiens) (UniProt Q96PY6); details: Compound concentration 100.0 nM
T1 sequence (whole entry): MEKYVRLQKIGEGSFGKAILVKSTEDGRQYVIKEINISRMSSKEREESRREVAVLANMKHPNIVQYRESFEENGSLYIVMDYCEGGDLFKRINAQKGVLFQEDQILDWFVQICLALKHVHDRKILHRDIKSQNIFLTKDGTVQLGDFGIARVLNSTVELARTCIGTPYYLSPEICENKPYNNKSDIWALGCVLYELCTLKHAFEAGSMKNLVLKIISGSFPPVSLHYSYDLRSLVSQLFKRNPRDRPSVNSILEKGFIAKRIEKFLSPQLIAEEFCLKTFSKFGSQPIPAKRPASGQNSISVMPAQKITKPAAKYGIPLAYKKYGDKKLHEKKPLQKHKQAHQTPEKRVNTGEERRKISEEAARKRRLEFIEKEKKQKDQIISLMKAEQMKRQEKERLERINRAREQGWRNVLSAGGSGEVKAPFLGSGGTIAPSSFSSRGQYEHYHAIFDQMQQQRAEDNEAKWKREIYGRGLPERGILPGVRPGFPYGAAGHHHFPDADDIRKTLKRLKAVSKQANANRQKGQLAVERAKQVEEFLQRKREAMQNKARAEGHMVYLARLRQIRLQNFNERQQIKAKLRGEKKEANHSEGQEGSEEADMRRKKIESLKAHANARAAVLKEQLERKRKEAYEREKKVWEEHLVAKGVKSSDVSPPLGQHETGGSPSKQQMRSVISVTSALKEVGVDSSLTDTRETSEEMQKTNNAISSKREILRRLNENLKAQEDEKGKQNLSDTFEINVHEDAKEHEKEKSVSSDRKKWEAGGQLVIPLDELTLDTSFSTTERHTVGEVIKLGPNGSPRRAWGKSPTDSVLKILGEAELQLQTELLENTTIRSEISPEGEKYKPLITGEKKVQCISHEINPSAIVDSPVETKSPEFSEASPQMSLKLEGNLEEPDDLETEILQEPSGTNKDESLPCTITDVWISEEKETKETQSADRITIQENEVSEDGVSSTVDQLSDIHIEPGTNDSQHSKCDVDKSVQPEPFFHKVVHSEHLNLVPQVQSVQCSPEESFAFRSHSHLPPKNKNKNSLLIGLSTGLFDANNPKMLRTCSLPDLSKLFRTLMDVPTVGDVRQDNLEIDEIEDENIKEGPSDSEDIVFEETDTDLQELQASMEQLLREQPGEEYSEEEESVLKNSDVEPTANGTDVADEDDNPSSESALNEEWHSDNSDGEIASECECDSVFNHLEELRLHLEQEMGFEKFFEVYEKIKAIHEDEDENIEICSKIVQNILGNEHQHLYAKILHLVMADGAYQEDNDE

[26] = biological target: Cyclin-dependent kinase 4 (Homo sapiens) (UniProt P11802); details: Compound concentration 100.0 nM
Sequence of Cyclin-dependent kinase 4 (Homo sapiens) (P11802 whole entry): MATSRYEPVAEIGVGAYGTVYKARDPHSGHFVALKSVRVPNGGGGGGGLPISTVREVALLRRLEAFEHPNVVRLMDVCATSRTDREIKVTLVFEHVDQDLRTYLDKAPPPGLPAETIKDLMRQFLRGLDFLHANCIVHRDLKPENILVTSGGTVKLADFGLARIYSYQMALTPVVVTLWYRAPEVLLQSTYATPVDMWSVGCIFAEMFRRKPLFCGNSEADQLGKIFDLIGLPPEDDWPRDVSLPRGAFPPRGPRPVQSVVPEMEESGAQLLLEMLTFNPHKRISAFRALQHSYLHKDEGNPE

[27] = biological target: Cyclin-dependent kinase 4 (Homo sapiens) (UniProt P11802); details: Compound concentration 100.0 nM; remark: listed apart in the source

| Compound | residual activity [1] [%] | residual activity [2] [%] | residual activity [3] [%] | residual activity [4] [%] | inhibition [5] [%] | residual activity [6] [%] | residual activity [7] [%] | residual activity [8] [%] | residual activity [9] [%] | residual activity [10] [%] | residual activity [11] [%] | inhibition (D(1B) dopamine receptor) [%] | residual activity [12] [%] | residual activity [13] [%] | residual activity [14] [%] | residual activity [15] [%] | residual activity [16] [%] | residual activity [17] [%] | residual activity [18] [%] | inhibition [19] [%] | also measured |
| --- | --- | --- | --- | --- | --- | --- | --- | --- | --- | --- | --- | --- | --- | --- | --- | --- | --- | --- | --- | --- | --- |
| CCOC(=O)c1cc2cc(-c3cc(C(=O)NCc4ccc(C(=O)O)cc4)nn3C)ccc2[nH]1 [BI 4394] | 95 | 93 | 97 | 100 | 5.88 | 91 | 98 | 93 | 98 | 94 | 76 | 59.6 | 87 | 100 | 84 | 80 | 100 | 66 | 78 | -7.76 | residual activity [20]: 88%; residual activity [21]: 82%; residual activity [22]: 76%; residual activity [23]: 96%; residual activity [24]: 93%; residual activity [25]: 100%; residual activity [26]: 82%; residual activity [27]: 82% |
| Cn1nc(C(=O)NCc2ccc(C(=O)O)cc2)cc1-c1ccc2[nH]ccc2c1 [BI 4395] | 63 | 100 | 82 | 62 | -4.31 | 92 | 100 | 89 | 86 | 95 | 100 | 73.9 | 99 | 95 | 77 | 95 | 63 | 100 | 86 | 6.74 | residual activity [20]: 94%; residual activity [21]: 68%; residual activity [22]: 75%; residual activity [23]: 81%; residual activity [24]: 96%; residual activity [25]: 100%; residual activity [26]: 84%; residual activity [27]: 96% |
